Results on 14 molecules are retold here after BindingDB's records for doi:10.1016/j.ejmech.2016.03.038 (Glaxosmithkline, 2016).

The nature of one assay: Inhibition of pseudotype HIV1 integrase strand transfer activity assessed as reduction in viral replication in HIV1 infected human CIP4 cells after 2 days by luciferase reporter gene assay. (A reporter such as luciferase makes a cellular process visible.)
As to `O=C(NCc1ccc(F)cc1)c1cn2c(c(O)c1=O)C(=O)N1CCCO[C@H]1C2`, the IC50 was 2 nM. The same measure, in the same setting: as for `O=C1c2c(cc3cc(Cc4cccc(Cl)c4F)cnc3c2O)CN2CCCN12`, the figure is 16 nM; as for `N#Cc1c2c(c(O)c3ncc(Cc4cccc(Cl)c4F)cc13)C(=O)N1CCCN1C2`, 2.2 nM. Take `N#Cc1c2c(c(O)c3ncc(Cc4cccc(Cl)c4F)cc13)C(=O)N1CCC[C@@H]1C2`: the IC50 turned out to be 7 nM.

`N#Cc1c2c(c(O)c3ncc(Cc4cccc(Cl)c4F)cc13)C(=O)N1CCC[C@H]1C2`: the IC50 was 14 nM. Take `N#Cc1c2c(c(O)c3ncc(Cc4cccc(Cl)c4F)cc13)C(=O)N1CCCC[C@H]21`: the 50% inhibitory concentration (IC50) was found to be 15 nM.

As to `N#Cc1c2c(c(O)c3ncc(Cc4cccc(Cl)c4F)cc13)C(=O)N1CCCC[C@@H]21`, the IC50 was 18 nM. `N#Cc1c2c(c(O)c3ncc(Cc4cccc(Cl)c4F)cc13)C(=O)N1CCC[C@H]21`: the IC50 stood at 5 nM.

Consider `N#Cc1c2c(c(O)c3ncc(Cc4cccc(Cl)c4F)cc13)C(=O)N1CCC[C@@H]21`, for which the IC50 worked out at 10 nM. Consider `NC(=O)c1c2c(c(O)c3ncc(Cc4cccc(Cl)c4F)cc13)C(=O)N1CCC[C@@H]1C2`, for which the IC50 turned out to be 8 nM. Same read-out and setting: as for `NC(=O)c1c2c(c(O)c3ncc(Cc4cccc(Cl)c4F)cc13)C(=O)N1CCC[C@H]1C2`, the figure is 3 nM; as for `NC(=O)c1c2c(c(O)c3ncc(Cc4cccc(Cl)c4F)cc13)C(=O)N1CCCC[C@H]21`, 0.7 nM; as for `NC(=O)c1c2c(c(O)c3ncc(Cc4cccc(Cl)c4F)cc13)C(=O)N1CCCC[C@@H]21`, 0.6 nM. The same measure, in the same setting: as for `Cn1c(=O)c(C(=O)NCCO)c(O)c2ncc(Cc3ccc(F)cc3)cc21` [GSK364735], the figure is 3 nM.

A short description of a further assay: Inhibition of pseudotype HIV1 integrase strand transfer activity assessed as reduction in viral replication in HIV1 infected human CIP4 cells after 2 days in presence of 40% human serum albumin by luciferase reporter gene assay.
On to `O=C1c2c(cc3cc(Cc4cccc(Cl)c4F)cnc3c2O)CN2CCCN12`, for which the IC50 is 136 nM.

As to `N#Cc1c2c(c(O)c3ncc(Cc4cccc(Cl)c4F)cc13)C(=O)N1CCCN1C2`, the IC50 was found to be 415 nM. Same read-out and setting: next, `N#Cc1c2c(c(O)c3ncc(Cc4cccc(Cl)c4F)cc13)C(=O)N1CCC[C@@H]1C2`: 4540 nM; `N#Cc1c2c(c(O)c3ncc(Cc4cccc(Cl)c4F)cc13)C(=O)N1CCC[C@H]1C2`: 66 nM.

Consider `N#Cc1c2c(c(O)c3ncc(Cc4cccc(Cl)c4F)cc13)C(=O)N1CCCC[C@H]21`, for which the IC50 was determined as 457 nM. On the same count and under the same terms, as for `N#Cc1c2c(c(O)c3ncc(Cc4cccc(Cl)c4F)cc13)C(=O)N1CCCC[C@@H]21`, the figure is 1280 nM. Same read-out and setting: next, `N#Cc1c2c(c(O)c3ncc(Cc4cccc(Cl)c4F)cc13)C(=O)N1CCC[C@H]21`: 294 nM; `N#Cc1c2c(c(O)c3ncc(Cc4cccc(Cl)c4F)cc13)C(=O)N1CCC[C@@H]21`: 3320 nM.

In the case of `NC(=O)c1c2c(c(O)c3ncc(Cc4cccc(Cl)c4F)cc13)C(=O)N1CCC[C@@H]1C2`, the IC50 was determined as 30 nM. On the same count and under the same terms, as for `NC(=O)c1c2c(c(O)c3ncc(Cc4cccc(Cl)c4F)cc13)C(=O)N1CCC[C@H]1C2`, the figure is 15 nM; as for `NC(=O)c1c2c(c(O)c3ncc(Cc4cccc(Cl)c4F)cc13)C(=O)N1CCCC[C@H]21`, 1 nM; as for `NC(=O)c1c2c(c(O)c3ncc(Cc4cccc(Cl)c4F)cc13)C(=O)N1CCCC[C@@H]21`, 2 nM.

A word on the IC50: it is the concentration needed to halve the response being measured.
